What all share (type): cell-based
The target in test [1] is T1, 5-hydroxytryptamine receptor 2C (Homo sapiens, UniProt P28335).
T1 sequence (P28335 whole entry): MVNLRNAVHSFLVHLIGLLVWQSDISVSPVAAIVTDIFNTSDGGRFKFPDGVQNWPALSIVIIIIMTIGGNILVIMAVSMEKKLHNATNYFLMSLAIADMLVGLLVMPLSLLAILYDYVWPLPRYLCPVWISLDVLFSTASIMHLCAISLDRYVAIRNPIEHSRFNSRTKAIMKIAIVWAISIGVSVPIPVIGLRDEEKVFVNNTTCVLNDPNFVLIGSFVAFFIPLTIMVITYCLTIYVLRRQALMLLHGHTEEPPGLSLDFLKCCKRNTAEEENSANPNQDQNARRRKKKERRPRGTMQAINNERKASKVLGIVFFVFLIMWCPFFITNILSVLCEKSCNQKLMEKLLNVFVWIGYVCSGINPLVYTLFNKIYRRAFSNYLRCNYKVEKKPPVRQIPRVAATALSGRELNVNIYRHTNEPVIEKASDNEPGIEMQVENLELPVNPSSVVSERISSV
Briefly: Displacement of [3H]mesulergine from human cloned 5-hydroxytryptamine 2C receptor expressed in CHO-K1 cells. (In general: In a radioligand displacement assay an active substance lowers the binding of a labelled ligand.)

Test [2] concerns the target 5-hydroxytryptamine receptor 2B (Homo sapiens, UniProt P41595). As to the kind of experiment: Displacement of [3H]-5-5HT from human cloned 5-hydroxytryptamine 2B receptor expressed in CHO-K1 cells.
The target of test [3] is T2, 5-hydroxytryptamine receptor 2A (Homo sapiens, UniProt P28223). As to the kind of experiment: Compound was evaluated for displacement of [3H]ketanserin from human cloned 5-hydroxytryptamine 2A receptor in transfected CHO-K1 cells.
T2 sequence (P28223 whole entry): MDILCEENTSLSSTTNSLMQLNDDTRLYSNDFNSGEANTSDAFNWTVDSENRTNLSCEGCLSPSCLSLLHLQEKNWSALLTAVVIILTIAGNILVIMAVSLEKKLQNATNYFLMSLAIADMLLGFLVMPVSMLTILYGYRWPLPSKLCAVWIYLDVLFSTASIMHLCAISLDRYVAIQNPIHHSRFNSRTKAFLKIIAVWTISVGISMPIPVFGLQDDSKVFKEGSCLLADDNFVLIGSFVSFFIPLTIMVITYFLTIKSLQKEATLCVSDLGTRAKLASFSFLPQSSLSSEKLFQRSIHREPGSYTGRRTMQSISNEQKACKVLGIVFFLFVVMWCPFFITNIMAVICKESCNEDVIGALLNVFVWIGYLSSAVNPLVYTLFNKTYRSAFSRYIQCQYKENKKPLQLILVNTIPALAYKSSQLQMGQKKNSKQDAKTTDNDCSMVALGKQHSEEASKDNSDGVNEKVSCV
For test [4], the target named is T2, 5-hydroxytryptamine receptor 2A. Briefly: Displacement of [3H]-ketanserin from human cloned 5-hydroxytryptamine 2A receptor expressed in CHO-K1 cells.
Test [5] deals with 5-hydroxytryptamine receptor 2A (Rattus norvegicus, UniProt P14842). Briefly: Compound was evaluated for displacement of [3H]ketanserin from cloned rat 5-hydroxytryptamine 2A receptor in transfected CHO-K1 cells.
5-hydroxytryptamine receptor 2A (Rattus norvegicus, UniProt P14842), sequence (P14842 whole entry, looked up): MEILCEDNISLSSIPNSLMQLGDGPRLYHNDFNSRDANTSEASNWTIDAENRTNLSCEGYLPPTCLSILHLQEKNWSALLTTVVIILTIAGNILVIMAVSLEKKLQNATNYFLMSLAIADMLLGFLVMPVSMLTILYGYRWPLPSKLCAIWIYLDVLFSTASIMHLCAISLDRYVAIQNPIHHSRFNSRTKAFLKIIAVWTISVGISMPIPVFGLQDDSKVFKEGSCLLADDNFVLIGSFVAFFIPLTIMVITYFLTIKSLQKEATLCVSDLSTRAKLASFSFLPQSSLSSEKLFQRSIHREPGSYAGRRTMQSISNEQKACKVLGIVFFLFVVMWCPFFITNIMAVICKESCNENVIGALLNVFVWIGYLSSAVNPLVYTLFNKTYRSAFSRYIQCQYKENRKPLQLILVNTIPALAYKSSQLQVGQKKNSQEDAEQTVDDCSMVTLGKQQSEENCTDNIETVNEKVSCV
The target of test [6] is T3, 5-hydroxytryptamine receptor 2C (Rattus norvegicus, UniProt P08909).
T3 sequence (P08909 whole entry): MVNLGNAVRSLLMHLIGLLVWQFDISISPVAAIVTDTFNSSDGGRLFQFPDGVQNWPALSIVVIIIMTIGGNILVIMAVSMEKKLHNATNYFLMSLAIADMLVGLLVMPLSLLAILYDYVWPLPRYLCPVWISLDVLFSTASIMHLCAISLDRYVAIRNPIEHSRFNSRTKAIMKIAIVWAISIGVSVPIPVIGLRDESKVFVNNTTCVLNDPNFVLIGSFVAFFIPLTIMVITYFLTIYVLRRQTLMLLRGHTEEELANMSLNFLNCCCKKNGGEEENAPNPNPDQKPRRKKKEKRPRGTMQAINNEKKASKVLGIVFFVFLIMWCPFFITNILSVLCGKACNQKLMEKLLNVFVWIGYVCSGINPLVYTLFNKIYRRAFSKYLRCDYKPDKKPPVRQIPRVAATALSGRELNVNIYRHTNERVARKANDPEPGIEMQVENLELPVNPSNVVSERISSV
Briefly: Compound was evaluated for displacement of [3H]mesulergine from cloned rat 5-hydroxytryptamine 2C receptor in transfected CHO-K1 cells.

The term Ki denotes the equilibrium dissociation constant of an inhibitor or competing ligand from its target. Read a low Ki as a stronger hold on the target.

5-hydroxytryptamine receptor 2B, sequence (P41595 whole entry): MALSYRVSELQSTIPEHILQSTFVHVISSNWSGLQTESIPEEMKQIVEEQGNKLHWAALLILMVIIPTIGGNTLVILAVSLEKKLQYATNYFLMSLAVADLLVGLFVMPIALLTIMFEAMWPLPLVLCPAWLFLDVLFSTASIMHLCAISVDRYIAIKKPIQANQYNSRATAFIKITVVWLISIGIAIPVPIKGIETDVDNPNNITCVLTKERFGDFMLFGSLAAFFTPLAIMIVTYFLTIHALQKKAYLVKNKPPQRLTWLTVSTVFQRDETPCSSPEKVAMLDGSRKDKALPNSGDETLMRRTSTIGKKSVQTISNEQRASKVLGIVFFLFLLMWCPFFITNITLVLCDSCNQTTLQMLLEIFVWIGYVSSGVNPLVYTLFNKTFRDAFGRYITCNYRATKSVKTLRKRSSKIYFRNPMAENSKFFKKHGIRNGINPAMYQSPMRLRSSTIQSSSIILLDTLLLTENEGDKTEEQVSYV

As for `COc1ccc(OC)c(C(=O)CCCCN2CCC3(CC2)NC(=O)NC3=O)c1`, the Ki in test [1] is 3.16 nM; in test [2] it was 126 nM; in test [3], 20 nM.
In the case of `COc1cc(OC)c(C(=O)CCCCN2CCC3(CC2)NC(=O)NC3=O)cc1NS(=O)(=O)c1ccccc1Cl`, the figures for the Ki in test [1], in test [2] and in test [4] were 398 nM, 398 nM and over 10000 nM, respectively.
As for `COc1cc(OC)c(C(=O)CCCCN2CCC3(CC2)NC(=O)NC3=O)cc1NS(=O)(=O)c1cccc(C(F)(F)F)c1`, the Ki in test [5] is 794 nM; in test [6], 100 nM.
With `COc1cc(OC)c(C(=O)CCCCN2CCC3(CC2)NC(=O)NC3=O)cc1NS(=O)(=O)c1ccc(F)cc1`, the figures for the Ki in test [1], in test [2] and in test [4] were 10 nM, 126 nM and over 10000 nM, respectively.
In the case of `COc1cc(OC)c(-c2ccccc2)cc1C(=O)CCCCN1CCC2(CC1)NC(=O)NC2=O`, the Ki was 10 nM in test [1], 100 nM in test [2] and 398 nM in test [3].
With `COc1cc(OC)c(C(=O)CCCCN2CCC3(CC2)NC(=O)NC3=O)cc1NS(=O)(=O)c1cccc(Cl)c1`, the Ki was 50.1 nM in test [1], 200 nM in test [2] and 2000 nM in test [4].
Regarding `COc1ccc(NS(=O)(=O)c2ccc(Cl)cc2)cc1C(=O)CCCCN1CCC2(CC1)NC(=O)NC2=O`, the Ki in test [5] is 7.94 nM; in test [6] it was 2 nM.
On to `COc1cc(OC)c(C(=O)CCCCN2CCC3(CC2)NC(=O)NC3=O)cc1NS(=O)(=O)c1ccccc1`, for which the figures for the Ki in test [1], in test [2] and in test [4] were 31.6 nM, 631 nM and 3160 nM, respectively.
For `COc1cc(OC)c(C(=O)CCCCN2CCC3(CC2)NC(=O)NC3=O)cc1NS(=O)(=O)c1ccc(C(C)=O)cc1`, the Ki in test [1] was 39.8 nM; in test [2], 251 nM; in test [4] it was over 10000 nM.
As to `COc1ccc(NS(=O)(=O)c2ccccc2)cc1C(=O)CCCCN1CCC2(CC1)NC(=O)NC2=O`, the Ki in test [5] was 20 nM; in test [6] it was 6.31 nM.
Regarding `COc1ccc(Oc2ccccc2)cc1C(=O)CCCCN1CCC2(CC1)NC(=O)NC2=O`, the Ki in test [5] is 7.94 nM; in test [6], 3.16 nM.
For `COc1cc(OC)c(C(=O)CCCCN2CCC3(CC2)NC(=O)NC3=O)cc1NS(=O)(=O)c1ccc(Cl)cc1`, the values for the Ki in test [1], in test [2] and in test [4] were 5.01 nM, 79.4 nM and 794 nM, respectively.
For `COc1cc(OC)c(C(=O)CCCCN2CCC3(CC2)NC(=O)NC3=O)cc1NS(=O)(=O)c1ccc(C)cc1` the same measures were 10 nM, 316 nM and 2510 nM.
The matching figures for `COc1cc(OC)c(C(=O)CCCCN2CCC3(CC2)NC(=O)NC3=O)cc1NS(=O)(=O)c1ccc(C#N)cc1`: 7.94 nM, 398 nM and 794 nM.
The matching figures for `COc1cc(OC)c(C(=O)CCCCN2CCC3(CC2)NC(=O)NC3=O)cc1NS(=O)(=O)c1ccc(S(N)(=O)=O)cc1`: 79.4 nM, 3160 nM and over 10000 nM.
For `COc1ccc(Cl)cc1C(=O)CCCCN1CCC2(CC1)NC(=O)NC2=O`, the Ki in test [1] is 3.98 nM; in test [2], 50.1 nM; in test [3], 12.6 nM.
`COc1cc(OC)c(C(=O)CCCCN2CCC3(CC2)NC(=O)NC3=O)cc1N`: the Ki in test [5] was 126 nM; in test [6] it was 39.8 nM.
Take `COc1ccc(S(=O)(=O)Nc2cc(C(=O)CCCCN3CCC4(CC3)NC(=O)NC4=O)c(OC)cc2OC)cc1`: the results for the Ki in test [1], in test [2] and in test [4] were 20 nM, 1260 nM and 2000 nM, respectively.
As to `COc1cc(Cl)ccc1C(=O)CCCCN1CCC2(CC1)NC(=O)NC2=O`, the results for the Ki in test [1], in test [2] and in test [3] were 6.31 nM, 200 nM and 126 nM, respectively.
For the compound `COc1ccccc1C(=O)CCCCN1CCC2(CC1)NC(=O)NC2=O`, the Ki in test [1], in test [2] and in test [3] was over 10000 nM each time.
As for `COc1cc(OC)c(C(=O)CCCCN2CCC3(CC2)NC(=O)NC3=O)cc1NS(=O)(=O)c1ccc(OC(F)(F)F)cc1`, the figures for the Ki in test [1], in test [2] and in test [4] were 1.58 nM, 398 nM and 1000 nM, respectively.
With `COc1cc(OC)c(C(=O)CCCCN2CCC3(CC2)NC(=O)NC3=O)cc1Cl`, the Ki was 5.01 nM in test [5] and 0.631 nM in test [6].
Turning to `COc1cc(Cl)c(Cl)cc1C(=O)CCCCN1CCC2(CC1)NC(=O)NC2=O`, the Ki in test [1] was 0.251 nM; in test [2], 6.31 nM; in test [3] it was 6.31 nM.
For the compound `COc1cc(OC)c(C(=O)CCCCN2CCC3(CC2)NC(=O)NC3=O)cc1NS(=O)(=O)c1ccc(C(C)C)cc1`, the Ki in test [1] is 1.58 nM; in test [2], 1260 nM; in test [4] it was 1260 nM.
`COc1cc(OC)c(C(=O)CCCCN2CCC3(CC2)NC(=O)NC3=O)cc1NS(=O)(=O)c1ccc(NC(C)=O)cc1`: the values for the Ki in test [1], in test [2] and in test [4] were 39.8 nM, 316 nM and over 10000 nM, respectively.
Turning to `COc1ccc(-c2ccccc2)cc1C(=O)CCCCN1CCC2(CC1)NC(=O)NC2=O`, the figures for the Ki in test [1], in test [2] and in test [3] were 0.2 nM, 10 nM and 1 nM, respectively.
For `CN1C[C@@H](NS(=O)(=O)N(C)C)C[C@@H]2c3cccc4c3c(cn4C)C[C@H]21` [MESULERGINE], the Ki in test [2] was 2 nM; in test [4] it was 20 nM.
`COc1cc(OC)c(C(=O)CCCCN2CCC3(CC2)NC(=O)NC3=O)cc1NS(=O)(=O)c1ccc(C(F)(F)F)cc1` [RS-102,221]: the inhibition constant Ki was 2 nM in test [1], 316 nM in test [2] and 631 nM in test [4].
In the case of `O=C(CCCN1CCC2(CC1)C(=O)NCN2c1ccccc1)c1ccc(F)cc1` [SPIPERONE], the Ki in test [1] is 631 nM; in test [2], 1260 nM.
